According to patent publication EP3898610B1, “NOVEL AZA-HEXAPHENE ANTIBIOTIC COMPOUNDS” (Fondazione Istituto Insubrico di Ricerca per la Vita, priority 2018, dated 2020):
In brackets after ≈: the same amount, converted by molar mass. Read-outs that look alike come from different tables or passages of the source.

Assays:
L100 S. aureus ATCC6538P = assay: MIC, broth microdilution (CLSI); assay type: cell-based; settings: Staphylococcus aureus; L100 S. aureus ATCC6538P; cation-adjusted Mueller Hinton Broth, 35°C, 18-24 hours; read-out: MIC
Procedure: (§1) Antibacterial activity. […] Each bacterial strain was inoculated with 2-5×10^5 CFU/ml, Candida albicans with 10^4 CFU/ml. Cultures were incubated at 35°C in air. After 18-24 hours visual readings were performed and MICs (Minimal Inhibitory Concentrations) determined. The effect of 30% bovine serum was determined under the same experimental conditions. The strains used were clinical isolates or strains from American Type Culture Collection (ATCC).

L1577 S. epidermidis = assay: MIC, broth microdilution (CLSI); assay type: cell-based; settings: Staphylococcus epidermidis; L1577 S. epidermidis; cation-adjusted Mueller Hinton Broth, 35°C, 18-24 hours; read-out: MIC
Procedure: as §1

[1] = test system: L1729 S. haemolyticus MDR; assay: MIC, broth microdilution (CLSI); assay type: cell-based; settings: Staphylococcus haemolyticus; L1729 S. haemolyticus MDR; cation-adjusted Mueller Hinton Broth, 35°C, 18-24 hours; read-out: MIC
Procedure: as §1

L1730 S. haemolyticus = assay: MIC, broth microdilution (CLSI); assay type: cell-based; settings: Staphylococcus haemolyticus; L1730 S. haemolyticus; cation-adjusted Mueller Hinton Broth, 35°C, 18-24 hours; read-out: MIC
Procedure: as §1

[2] = test system: L4061 S. aureus MRSA - GISA; assay: MIC, broth microdilution (CLSI); assay type: cell-based; settings: Staphylococcus aureus; L4061 S. aureus MRSA - GISA; cation-adjusted Mueller Hinton Broth, 35°C, 18-24 hours; read-out: MIC
Procedure: as §1

L44 S. pneumoniae = assay: MIC, broth microdilution (CLSI); assay type: cell-based; settings: Streptococcus pneumoniae; L44 S. pneumoniae; Todd Hewitt medium, 35°C, 18-24 hours; read-out: MIC
Procedure: as §1

L49 S. pyogenes C203 = assay: MIC, broth microdilution (CLSI); assay type: cell-based; settings: Streptococcus pyogenes; L49 S. pyogenes C203; Todd Hewitt medium, 35°C, 18-24 hours; read-out: MIC
Procedure: as §1

L560 E. faecalis VanA = assay: MIC, broth microdilution (CLSI); assay type: cell-based; settings: Enterococcus faecalis; L560 E. faecalis VanA; cation-adjusted Mueller Hinton Broth, 35°C, 18-24 hours; read-out: MIC
Procedure: as §1

L568 E. faecium = assay: MIC, broth microdilution (CLSI); assay type: cell-based; settings: Enterococcus faecium; L568 E. faecium; cation-adjusted Mueller Hinton Broth, 35°C, 18-24 hours; read-out: MIC
Procedure: as §1

L569 E. faecium VanA = assay: MIC, broth microdilution (CLSI); assay type: cell-based; settings: Enterococcus faecium; L569 E. faecium VanA; cation-adjusted Mueller Hinton Broth, 35°C, 18-24 hours; read-out: MIC
Procedure: as §1

[3] = test system: VA80201 S. aureus CA-MRSA; assay: MIC, broth microdilution (CLSI); assay type: cell-based; settings: Staphylococcus aureus; VA80201 S. aureus CA-MRSA; cation-adjusted Mueller Hinton Broth, 35°C, 18-24 hours; read-out: MIC
Procedure: as §1

[4] = test system: VA8101 S. agalactiae (Group B); assay: MIC, broth microdilution (CLSI); assay type: cell-based; settings: Streptococcus agalactiae; VA8101 S. agalactiae (Group B); Todd Hewitt medium, 35°C, 18-24 hours; read-out: MIC
Procedure: as §1

[5] = test system: L4187 E. faecium VanA - Lnz R - Cpx R; assay: microbe, parasite or virus in culture; assay type: cell-based; settings: Enterococcus faecium; L4187 E. faecium VanA - Lnz R - Cpx R; cation-adjusted Mueller Hinton Broth, 35°C, 18-24 hours; read-out: MIC
Procedure: as §1

L145 C. albicans = assay: MIC, broth microdilution (CLSI); assay type: cell-based; settings: Candida albicans; L145 C. albicans; RPMI 1640 medium, 10^4 CFU/ml, 35°C, 18-24 hours; read-out: MIC
Procedure: Antibacterial activity. The antimicrobial activity of the antibiotic 103/33-F710 was determined by the broth microdilution method according to the procedures published by the Clinical and Laboratory Standards Institute (CLSI), formerly the National Committee for Clinical Laboratory Standards (NCCLS) (document M07-A9). Microorganisms were grown in either cation-adjusted Mueller Hinton Broth (Staphylococci, Enterococci, Moraxella catarrhalis, Escherichia coli), Todd Hewitt medium (Streptococci) or RPMI 1640 medium for Candida albicans on 96-well microtiter plates. Each bacterial strain was inoculated with 2-5×10^5 CFU/ml, Candida albicans with 10^4 CFU/ml. Cultures were incubated at 35°C in air. After 18-24 hours visual readings were performed and MICs (Minimal Inhibitory Concentrations) determined. The effect of 30% bovine serum was determined under the same experimental conditions. The strains used were clinical isolates or strains from American Type Culture Collection (ATCC). The antibiotic 103/33-F710 was dissolved in DMSO to obtain a 1000 µg/ml stock solution, and subsequently diluted in water to obtain working solution. Table 5: Antimicrobial activity reported as MIC (µg/ml) of ID103/33-F710
Antibacterial activity. The antimicrobial activity of the antibiotic 103/33-F696 was determined by the broth microdilution method according to the procedures disclosed in Example 7. Table 6: Antimicrobial activity reported as MIC (µg/ml) of compound 2 (103/33-F696)
Antibacterial activity. The antimicrobial activity of the antibiotic 103/33-F712 was determined by the broth microdilution method according to the procedures disclosed in Example 7. Table 7: Antimicrobial activity reported as MIC (µg/ml) of ID103/33-F712

[6] = test system: Hela cells from cervix adenocarcinoma; assay: Cytotoxicity against human cells; assay type: cell-based; settings: at 200 µg/ml
[7] = test system: HepG2 cells from hepatocarcinoma; assay: Cytotoxicity against human cells; assay type: cell-based; settings: at 200 µg/ml, the highest concentration tested
[8] = test system: BJ5TA - ATCC CRL-4401 normal fibroblast; assay: Cytotoxicity against human cells; assay type: cell-based; settings: at 200 µg/ml, the highest concentration tested
Solubility = assay type: physicochemical
Procedure: Solubility of compound 1 (103/33 F-710) was poor in most low to medium- polarity organic solvents, as well as in water from acidic to neutral pH; it was more soluble at basic pH and stable up to pH 8-9, while in alcohols it ranged between 5-10 mg/ml. […] Some crystallizations trials were performed on compound 1 (103/33 F-710) in order to obtain suitable crystals for the X-ray structural characterization.

Question: For COc1c(OC)c2c(=O)c3cc(C)n(C(CC4CN(C)C(=N)N4)C(=O)O)c(=O)c3c(=O)c2c2cc3c(=O)c4cc(O)cc(O)c4c(=O)c3c(OC)c12 (centres unmarked) [compound 1, 2-(10,12-Dihydroxy-6,7,8-trimethoxy-3-methyl-1,5,9,14,16-pentaoxo-5,9,14,16-tetrahydro-1H-2-aza-hexaphen-2-yl)-3-(2-imino-1-methyl-imidazolidin-4-yl)-propionic acid], which MIC (L100 S. aureus ATCC6538P) is on record?
Answer: The MIC was 0.03 µg/mL (≈ 0.0422 µM).

Question: What about the MIC (L1577 S. epidermidis) of the same compound?
Answer: The MIC was 0.06 µg/mL (≈ 0.0844 µM).

Question: And the MIC [1]?
Answer: Its MIC is 0.016 µg/mL (≈ 0.0225 µM).

Question: What about the MIC (L1730 S. haemolyticus) of the same compound?
Answer: The MIC was 0.03 µg/mL (≈ 0.0422 µM).

Question: What about the MIC [2] of the same compound?
Answer: Its MIC is 0.06 µg/mL (≈ 0.0844 µM).

Question: And the MIC (L44 S. pneumoniae)?
Answer: The MIC was 16 µg/mL (≈ 22.5 µM).

Question: And the MIC (L49 S. pyogenes C203)?
Answer: Its MIC is 16 µg/mL (≈ 22.5 µM).

Question: What about the MIC (L560 E. faecalis VanA) of the same compound?
Answer: The MIC was 0.03 µg/mL (≈ 0.0422 µM).

Question: What about the MIC (L568 E. faecium) of the same compound?
Answer: The MIC was 2 µg/mL (≈ 2.81 µM).

Question: And the MIC (L569 E. faecium VanA)?
Answer: The MIC was 2 µg/mL (≈ 2.81 µM).

Question: And the MIC [3]?
Answer: The MIC was 0.015 µg/mL (≈ 0.0211 µM).

Question: And the MIC [4]?
Answer: Its MIC is 8 µg/mL (≈ 11.3 µM).

Question: What about the MIC [5] of the same compound?
Answer: The MIC was 2 µg/mL (≈ 2.81 µM).

Question: And the MIC (L145 C. albicans)?
Answer: The MIC was 256 µg/mL (≈ 360 µM).

Question: And the “toxicity against human cells” value ([6]; Hela cells, the highest concentration tested)?
Answer: The value was “no toxicity”.

Question: What about the “inhibit replication of HeLa cell” value [6] of the same compound?
Answer: The value was “does not inhibit”.

Question: What about the “toxicity against human cells” value [7] of the same compound?
Answer: Its value is “no toxicity”.

Question: What about the “toxicity against human cells” value [8] of the same compound?
Answer: Its value is “no toxicity”.

Question: And the Solubility (Solubility; acetone)?
Answer: Its Solubility is “scarcely soluble”.

Question: And the Solubility (Solubility; at basic pH)?
Answer: The Solubility was “more soluble”.

Question: And the Solubility (Solubility; dimethylformamide (DMF))?
Answer: The Solubility was “soluble”.

Question: And the Solubility (Solubility; methanol (MeOH))?
Answer: The Solubility was “scarcely soluble”.

Question: And the Solubility (Solubility; most low to medium- polarity organic solvents)?
Answer: Its Solubility is “poor”.

Question: And the Solubility (Solubility; organic solvent or mixture, dimethylsulfoxide (DMSO), read-out: Solubility)?
Answer: The Solubility was greater than 50000 µg/mL.

Question: And the Solubility (Solubility; organic solvent or mixture, in alcohols, read-out: Solubility)?
Answer: Its Solubility is 5000 to 10000 µg/mL (≈ 7040 to 14100 µM).

Question: What about the Solubility (Solubility; water from acidic to neutral pH) of the same compound?
Answer: Its Solubility is “poor”.
